In patent US7417156B2, “Orally active, antimalarial, anticancer, artemisinin-derived trioxane dimers” (Johns Hopkins University, priority 2002, dated 2008):

How the values were obtained:
[1] = system: RPMI-8226; assay: NCI 60 cell line panel screen (SRB); format: cell-based, human
[2] = system: SR; assay: NCI 60 cell line panel screen (SRB); format: cell-based, human; conditions: SR (Leukemia)
[3] = system: NCI-H322M; format: cell-based
[4] = system: COLO 205; assay: NCI 60 cell line panel screen (SRB); format: cell-based, human
[5] = system: HCC-2998; assay: NCI 60 cell line panel screen (SRB); format: cell-based, human
[6] = system: HT29; assay: NCI 60 cell line panel screen (SRB); format: cell-based, human
[7] = system: SW-620; assay: NCI 60 cell line panel screen (SRB); format: cell-based, human
[8] = system: U251; assay: NCI 60 cell line panel screen (SRB); format: cell-based, human
[9] = system: LOX IMVI; assay: NCI 60 cell line panel screen (SRB); format: cell-based, human
[10] = system: UACC-62; assay: NCI 60 cell line panel screen (SRB); format: cell-based, human
[11] = system: OVCAR-4; assay: NCI 60 cell line panel screen (SRB); format: cell-based, human
[12] = system: OVCAR-5; assay: NCI 60 cell line panel screen (SRB); format: cell-based, human
[13] = system: OVCAR-8; assay: NCI 60 cell line panel screen (SRB); format: cell-based, human
[14] = system: 786-0; assay: NCI 60 cell line panel screen (SRB); format: cell-based, human
[15] = system: A498; assay: NCI 60 cell line panel screen (SRB); format: cell-based, human
[16] = system: SN12C; assay: NCI 60 cell line panel screen (SRB); format: cell-based, human
[17] = system: TK-10; assay: NCI 60 cell line panel screen (SRB); format: cell-based, human; conditions: Renal Cancer, TK-10
[18] = system: UO-31; assay: NCI 60 cell line panel screen (SRB); format: cell-based, human; conditions: Renal Cancer, UO-31
[19] = system: DU-145; assay: NCI 60 cell line panel screen (SRB); format: cell-based, human
[20] = system: MDA-MB-435; assay: NCI 60 cell line panel screen (SRB); format: cell-based, human; conditions: Breast Cancer, MDA-MB-435
[21] = system: MDA-N; assay: NCI 60 cell line panel screen (SRB); format: cell-based, human; conditions: Breast Cancer, MDA-N
[22] = system: T-47D; assay: NCI 60 cell line panel screen (SRB); format: cell-based, human

In the case of `CC(=O)O[C@H]1C(=O)[C@@]2(C)[C@H]([C@H](OC(=O)c3ccccc3)[C@]3(O)C[C@H](OC(=O)[C@H](O)[C@@H](NC(=O)c4ccccc4)c4ccccc4)C(C)=C1C3(C)C)[C@]1(OC(C)=O)CO[C@@H]1C[C@@H]2O` [Paclitaxel, paclitaxel, reference compound], the Log10GI50 ([1]; Leukemia, RPMI-8226) is reported as under −13.00, the Log10LC50 ([1]; RPMI-8226 (Leukemia), LC50: PG=−50) is reported as over −4.00 log10M and the Log10TGI50 ([1]; RPMI-8226 (Leukemia), TGI: PG=0) is reported as over −4.00 log10M. It also gave a Log10LC50 ([2]; LC50: PG=−50) of over −4.00 log10M, a Log10TGI50 ([2]; TGI: PG=0) of over −4.00 log10M and a Log10LC50 ([3]; NCI-H322M (Non-Small Cell Lung Cancer), LC50: PG=−50) of over −4.00 log10M. It also gave a Log10TGI50 ([3]; NCI-H322M (Non-Small Cell Lung Cancer), TGI: PG=0) of −4.46 log10M, a Log10GI50 ([3]; Non-Small Cell Lung Cancer, NCI-H322M) of −10.12 and a Log10LC50 ([4]; COLO 205 (Colon Cancer), LC50: PG=−50) of over −4.41 log10M. The Log10GI50 ([4]; Colon Cancer, COLO 205) was −11.07, the Log10GI50 ([5]; Colon Cancer, HCC-2998) was −12.34 and the Log10LC50 ([5]; HCC-2998 (Colon Cancer), LC50: PG=−50) was −4.26 log10M. The Log10TGI50 ([5]; HCC-2998 (Colon Cancer), TGI: PG=0) was −4.77 log10M, the Log10GI50 ([6]; Colon Cancer, HT29) was under −13.00 and the Log10LC50 ([6]; HT29 (Colon Cancer), LC50: PG=−50) was −4.39 log10M. It also gave a Log10GI50 ([7]; Colon Cancer, SW-620) of −11.60, a Log10LC50 ([7]; SW-620 (Colon Cancer), LC50: PG=−50) of over −4.00 log10M and a Log10TGI50 ([7]; SW-620 (Colon Cancer), TGI: PG=0) of over −4.00 log10M. For the same compound, the Log10GI50 ([8]; CNS Cancer, U251) was −11.29, the Log10LC50 ([8]; U251 (CNS Cancer), LC50: PG=−50) was −4.15 log10M and the Log10TGI50 ([8]; U251 (CNS Cancer), TGI: PG=0) was −4.32 log10M. It also gave a Log10LC50 ([9]; LOX IMVI (Melanoma), LC50: PG=−50) of over −4.15 log10M, a Log10TGI50 ([9]; LOX IMVI (Melanoma), TGI: PG=0) of −4.65 log10M and a Log10GI50 ([9]; Melanoma, LOX IMVI) of −11.80. For the same compound, the Log10GI50 ([10]; Melanoma, UACC-62) was −10.46, the Log10LC50 ([10]; UACC-62 (Melanoma), LC50: PG=−50) was −4.19 log10M and the Log10TGI50 ([10]; UACC-62 (Melanoma), TGI: PG=0) was −4.71 log10M. The Log10LC50 ([11]; OVCAR-4 (Ovarian Cancer), LC50: PG=−50) was over −4.00 log10M, the Log10TGI50 ([11]; OVCAR-4 (Ovarian Cancer), TGI: PG=0) was −4.19 log10M and the Log10GI50 ([11]; Ovarian Cancer, OVCAR-4) was −5.00. It also gave a Log10LC50 ([12]; OVCAR-5 (Ovarian Cancer), LC50: PG=−50) of over −4.00 log10M, a Log10TGI50 ([12]; OVCAR-5 (Ovarian Cancer), TGI: PG=0) of −4.92 log10M and a Log10GI50 ([12]; Ovarian Cancer, OVCAR-5) of −9.38. It also gave a Log10LC50 ([13]; OVCAR-8 (Ovarian Cancer), LC50: PG=−50) of over −4.00 log10M, a Log10GI50 ([13]; Ovarian Cancer, OVCAR-8) of −10.75 and a Log10LC50 ([14]; 786-0 (Renal Cancer), LC50: PG=−50) of over −4.00 log10M. It also gave a Log10TGI50 ([14]; 786-0 (Renal Cancer), TGI: PG=0) of over −4.00 log10M, a Log10GI50 ([14]; Renal Cancer, 786-0) of −8.01 and a Log10LC50 ([15]; A498 (Renal Cancer), LC50: PG=−50) of −4.13 log10M. The Log10GI50 ([15]; Renal Cancer, A498) was −7.14, the Log10GI50 ([16]; Renal Cancer, SN12C) was −9.53 and the Log10LC50 ([16]; SN12C (Renal Cancer), LC50: PG=−50) was over −4.00 log10M. It also gave a Log10GI50 [17] of −7.89, a Log10GI50 [18] of −6.09 and a Log10LC50 ([19]; DU-145 (Prostate Cancer), LC50: PG=−50) of over −4.00 log10M. For the same compound, the Log10TGI50 ([19]; DU-145 (Prostate Cancer), TGI: PG=0) was over −4.00 log10M, the Log10GI50 ([19]; Prostate Cancer, DU-145) was −9.38 and the Log10GI50 [20] was under −13.00. For the same compound, the Log10GI50 [21] was under −13.00, the Log10GI50 ([22]; Breast Cancer, T-47D) was −9.81 and the Log10LC50 ([22]; T-47D (Breast Cancer), LC50: PG=−50) was over −4.00 log10M.
